Tests used:
[1] = biological target: CCK-A receptor; assay: CCK-receptor binding, CCK-A (Pancreas Assay)
Procedure: (§1) The greater affinity of the compounds of the invention for the CCK-B receptor over the CCK-A receptor has also been established using the CCK receptor binding assays described by G Dal Forno et al., J. Pharmcol. Exp & Ther. 261, 1056-1063, 1992.
(§2) The binding affinity of the compounds of the invention for the CCK-A receptor (Pancreas Assay) and CCK-B receptor (guinea pig cortex assay) was determined using the procedure of G Dal Forno et al J. Pharmacol. Exp & Ther. 261--1056-1063. The pKi values determined with respresentative compounds of invention were as follows: […]

[2] = biological target: T1, CCK-B receptor (Cavia porcellus, UniProt H0VZC5); assay: CCK-receptor binding, CCK-B (guinea pig cortex assay); details: read-out: pKi CCK-B (converted)
T1 construct: CCK-B receptor (guinea pig cortex assay); from tissue; host or cells: guinea pig cortex
T1 sequence (H0VZC5 1-426): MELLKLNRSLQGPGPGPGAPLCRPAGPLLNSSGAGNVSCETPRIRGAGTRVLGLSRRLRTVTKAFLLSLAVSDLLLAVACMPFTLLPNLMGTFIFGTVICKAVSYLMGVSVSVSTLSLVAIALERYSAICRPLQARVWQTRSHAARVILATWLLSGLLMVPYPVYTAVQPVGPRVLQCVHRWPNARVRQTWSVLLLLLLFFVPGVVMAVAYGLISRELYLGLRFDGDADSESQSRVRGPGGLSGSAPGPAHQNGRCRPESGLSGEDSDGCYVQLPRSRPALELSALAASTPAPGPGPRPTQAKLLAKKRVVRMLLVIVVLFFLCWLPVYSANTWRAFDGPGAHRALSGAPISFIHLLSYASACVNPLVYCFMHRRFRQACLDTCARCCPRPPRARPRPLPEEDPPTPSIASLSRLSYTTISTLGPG
Procedure: as §1, §2

Structure (SMILES) | pKi CCK-A [1] | Ki [2]
O=CNc1cccc(NC(=O)NC2C(=O)N(CC34CC5CC(CC(C5)C3)C4)c3ccccc3N(c3ccccc3)C2=O)c1 (racemic) [Example 6, N-[1-(1-Adamantylmethyl)-2,4-dioxo-5-phenyl-2,3,4,5-tetrahydro-1H-1,5-benzodiazepin-3-yl]-N'-(3-formylaminophenyl)urea] | 5.95 | 0.955 nM
CC(=O)Nc1cccc(NC(=O)NC2C(=O)N(CC34CC5CC(CC(C5)C3)C4)c3ccccc3N(c3ccccc3)C2=O)c1 (racemic) [Example 7, N-[1-(1-Adamantylmethyl)-2,4-dioxo-5-phenyl-2,3,4,5-tetrahydro-1H-1,5-benzodiazepin-3-yl]-N'-(3-acetamidophenyl)urea] | 5.82 | 1.32 nM
O=C(Nc1cccc(CN2CCOCC2)c1)NC1C(=O)N(CC23CC4CC(CC(C4)C2)C3)c2ccccc2N(c2ccccc2)C1=O (single isomer, unassigned; (+)) [Example 1, (+)N-[1-(1-Adamantylmethyl)-2,4-dioxo-5-phenyl-2,3,4,5-tetrahydro-1H-1,5-benzodiazepin-3-yl]-N'-(3-(4-morpholinomethyl)phenyl]-urea] | 4.70 | –
CCOC(=O)CCCOc1ccc(NC(=O)NC2C(=O)N(CC34CC5CC(CC(C5)C3)C4)c3ccccc3N(c3ccccc3)C2=O)cc1 (single isomer, unassigned; (+)) [Example 2, (+)N-[1-(1-Adamantylmethyl)-2,4-dioxo-5-phenyl-2,3,4,5-tetrahydro-1H-1,5-benzodiazepin-3yl]-N'-[4-(3-(ethoxycarbonyl)propyl-1-oxo)phenyl]urea] | < 5.0 | 5.25 nM
O=C(O)CCCOc1ccc(NC(=O)NC2C(=O)N(CC34CC5CC(CC(C5)C3)C4)c3ccccc3N(c3ccccc3)C2=O)cc1 (single isomer, unassigned; (+)) [Example 3, (+)N-[1-(1-Adamantylmethyl)-2,4-dioxo-5-phenyl-2,3,4,5-tetrahydro-1H-1,5benzodiazepin-3-yl]-N'-[4-(4-oxobutanoic acid)phenyl]urea] | < 5.0 | 3.8 nM
O=C(Nc1cccc(C(=O)OCCN2CCOCC2)c1)NC1C(=O)N(CC23CC4CC(CC(C4)C2)C3)c2ccccc2N(c2ccccc2)C1=O (single isomer, unassigned; (+)) [Example 4, (+)N-[1-(1-Adamantylmethyl)-2,4-dioxo-5-phenyl-2,3,4,5-tetrahydro-1H-5-benzodiazepin-3-yl]-N'-[3-[2-(4-Morpholino)ethoxycarbonyl]phenyl]urea] | 6.47 | 0.562 nM
O=C(Nc1cccc(NCC(O)CO)c1)NC1C(=O)N(CC23CC4CC(CC(C4)C2)C3)c2ccccc2N(c2ccccc2)C1=O (single isomer, unassigned; (+)) [Example 5, (+)N-[1-(1-Adamantylmethyl)-2,4-dioxo-5-phenyl-2,3,4,5-tetrahydro-1H-1,5-benzodiazepin-3-yl]N'-[3-(2,3-dihydroxypropylamino)phenyl]urea] | 5.13 | 0.676 nM
